Experimental data taken from publication PMC8540265, “Activity of New Synthetic (2-Chloroethylthio)-1,4-naphthoquinones in Prostate Cancer Cells” (Pharmaceuticals, 2021).
Like-named read-outs stand apart in the source and are kept apart here.

Tests used:
22Rv1 cells [1] = system: 22Rv1 cells
22Rv1 cells [2] = format: cell-based, human
PNT2 cells = assay: MTT cytotoxicity test, PNT2 cells; format: cell-based, human
Procedure: (§1) A total of 6000 cells/well were seeded in 96-well plates, incubated overnight, and treated with the drugs in 100 μL/well of the corresponding fresh culture media for 48 h, as previously described. For combinational assays, the cells were pre-treated with the corresponding inhibitor for the indicated time and then co-treated with the tested compounds for 48 h. Then, 10 μL/well of MTT ((3-(4,5-dimethylthiazol-2-yl)-2,5-diphenyltetrazolium bromide) solution was added and the cell viability was measured as previously reported.

22Rv1 cells [3] = assay: MTT cytotoxicity test, 22Rv1 cells; format: cell-based, human
Procedure: as §1

PC-3 cells = format: cell-based, human
[4] = Homo sapiens, PNT2, 48 h, MTT, non-cancer prostate cells

In the case of “2-[2-(3-chlorophenyl)hydrazinylyidene]propanedinitrile [CCCP]”, the “effect on mitochondrial membrane potential (ΔΨm)” value (22Rv1 cells [1]) is reported as “provoked mitochondrial membrane depolarization”.
In the case of COc1ccc(C[C@H]2NC[C@H](O)[C@H]2OC(C)=O)cc1 [Aniso, anisomycin], the “effect of pre-treatment with pan-caspase inhibitor zVAD on induced apoptosis” value (22Rv1 cells [2]) is reported as “Comparable effects”.
In the case of COc1ccc2c(c1O)C(=O)C(O)=C(C)C2=O [Compound 11, ancistroquinone B], the IC50 (PNT2 cells; [4]) is reported as > 100 µM and the IC50 (22Rv1 cells [3]; Homo sapiens, 22Rv1, 48 h, MTT) is reported as > 100 µM.
CC1=C(O)C(=O)c2c(ccc(O)c2O)C1=O [Compound 12, dioncoquinone B] was tested, and the IC50 (PNT2 cells; [4]) was > 100 µM and the IC50 (22Rv1 cells [3]; Homo sapiens, 22Rv1, 48 h, MTT) was 89.5 ± 24.9 µM.
COc1cc2c(c(OC)c1OC)C(=O)C(CSCCCl)=C(O)C2=O [Compound 34, 3-((2-Chloroethylthio)methyl)-2-hydroxy-5,6,7-trimethoxy-1,4-naphthoquinone] was tested, and the IC50 (PNT2 cells) was > 100 µM and the IC50 (22Rv1 cells [3]) was > 100 µM.
O=C1C(O)=C(CSCCCl)C(=O)c2c(O)c(Cl)c(Cl)c(O)c21 [Compound 37, 6,7-Dichloro-2-((2-chloroethylthio)methyl)-3,5,8-trihydroxy-1,4-naphthoquinone] was tested, and the IC50 (PNT2 cells) was 28.2 ± 1.04 µM, the IC50 (22Rv1 cells [3]) was 48.6 ± 12.2 µM and the “Selectivity Index [IC50(PNT2)/IC50(22Rv1)]” value (22Rv1 cells [3]) was 0.58.
COc1cc(O)c2c(c1O)C(=O)C(O)=C(CSCCCl)C2=O [Compound 38, 2-((2-Chloroethylthio)methyl)-3,5,8-trihydroxy-6-methoxy-1,4-naphthoquinone] was tested, and the IC50 (PNT2 cells) was > 100 µM and the IC50 (22Rv1 cells [3]) was > 100 µM.
In the case of CC(=O)O[C@@H]1O[C@H](CSC2=CC(=O)c3c(O)c(C)c(C)c(O)c3C2=O)[C@@H](OC(C)=O)[C@H](OC(C)=O)[C@H]1OC(C)=O [SAB-1], the “increase in activity in PC-3 cells on introduction of the 2-chloroethylthio group” value (PC-3 cells) is reported as 5 fold.
